Data taken from patent US20020068038A1, “Foaming tablet for cleaning the oral cavity and preparation method thereof” (priority 1998, published 2002).
Where two headings read alike, the source gives them in different places.

What was measured:
[1] = Fusobacterium nucleanum, MH medium, 96 hours anaerobic cultivation at 37° C., less than 10 colonies on LRBB agar
[2] = Streptococcus sanguis, MH medium, 96 hours anaerobic cultivation at 37° C., less than 10 colonies on LRBB agar
[3] = Bacterioides gingivalis, MH medium, 96 hours anaerobic cultivation at 37° C., less than 10 colonies on LRBB agar
[4] = Lactobacillus casei, MH medium, 96 hours anaerobic cultivation at 37° C., less than 10 colonies on LRBB agar
[5] = Capnocytophaga ochraceus, MH medium, 96 hours anaerobic cultivation at 37° C., less than 10 colonies on LRBB agar
[6] = Streptococcuis mutans, MH medium, 96 hours anaerobic cultivation at 37° C., less than 10 colonies on LRBB agar
[7] = Acetinobacillus, MH medium, 96 hours anaerobic cultivation at 37° C., less than 10 colonies on LRBB agar

SMILES | disinfection concentration (Eikenella corrdens) | disinfection concentration (Streptococcus sanguis) | disinfection concentration (Bacterioides gingivalis) | disinfection concentration (Lactobacillus casei) | disinfection concentration (Capnocytophaga ochraceus) | disinfection concentration (Streptococcuis mutans) | disinfection concentration (Acetinobacillus) | disinfection concentration (Fusobacterium nucleanum; [1]) | disinfection concentration (Streptococcus sanguis; [2]) | disinfection concentration (Bacterioides gingivalis; [3]) | disinfection concentration (Lactobacillus casei; [4]) | disinfection concentration (Capnocytophaga ochraceus; [5]) | disinfection concentration (Streptococcuis mutans; [6]) | disinfection concentration (Acetinobacillus; [7]) | disinfection concentration (Eikenella corrdens; Eikenella corrdens, MH medium, 96 hours anaerobic cultivation at 37° C., less than 10 colonies on LRBB agar) | disinfection concentration (Fusobacterium nucleanum)
O=C([O-])O.[K+] [KHCO3, potassium bicarbonate] | 300 | 300 | 100 | 600 | 150 | 600 | 300 | – | – | – | – | – | – | – | – | –
O=S(=O)([O-])[O-].[Mg+2] [MgSO4, magnesium sulfate] | – | – | – | – | – | – | – | 300 | 1,600 | 600 | 1,500 | 400 | 1,700 | 300 | – | –
[Cl-].[Na+] [NaCl, sodium chloride] | – | – | – | – | – | – | – | 400 | 2,200 | 650 | 1,200 | 350 | 1,300 | 250 | 400 | –
O=C([O-])O.[Na+] [NaHCO3, sodium bicarbonate] | – | 500 | 500 | 500 | 200 | 450 | 250 | – | – | – | – | – | – | – | – | 450
